Data from ChEMBL document CHEMBL1201862, “PubChem BioAssay data set” (2004).
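1) Cells in 96-well plates. 2) Compound, 48 h, 5 concentrations. 3) Linear interpolation between surrounding doses. 4) Unreached endpoint = highest concentration. Here, GI50 denotes the concentration required for 50% inhibition of growth.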 Activity calls are given as the source filed them. No stated cut-off is given here; in the data, active = GI50 up to about 1.1 µM and inactive = higher.

Legend:
Assay in all cases: NCI anticancer screen, dose series, 48 h
UACC-257 = test system: UACC-257
HL-60 = test system: HL-60
A498 = test system: A498
TK-10 = test system: TK-10
NCI-H522 = test system: NCI-H522
HOP-92 = test system: HOP-92
Malme-3M = test system: Malme-3M
IGROV-1 = test system: IGROV-1
SK-MEL-2 = test system: SK-MEL-2
NCI/ADR-RES = test system: NCI/ADR-RES
OVCAR-4 = test system: OVCAR-4
NCI-H23 = test system: NCI-H23
SR = test system: SR
SF-295 = test system: SF-295
HCT-15 = test system: HCT-15
SF-268 = test system: SF-268
OVCAR-3 = test system: OVCAR-3
MCF7 = test system: MCF7
A549 = test system: A549
RPMI-8226 = test system: RPMI-8226
ACHN = test system: ACHN
EKVX = test system: EKVX
SW-620 = test system: SW-620
SK-OV-3 = test system: SK-OV-3
SNB-19 = test system: SNB-19
NCI-H226 = test system: NCI-H226
M14 = test system: M14
PC-3 = test system: PC-3
CAKI-1 = test system: CAKI-1
HCT-116 = test system: HCT-116
RXF 393 = test system: RXF 393
HOP-62 = test system: HOP-62
KM12 = test system: KM12
SF-539 = test system: SF-539
T47D = test system: T47D
UACC-62 = test system: UACC-62
MOLT-4 = test system: MOLT-4
K562 = test system: K562
CCRF-CEM = test system: CCRF-CEM
OVCAR-5 = test system: OVCAR-5
HT-29 = test system: HT-29
786-0 = test system: 786-0
SK-MEL-5 = test system: SK-MEL-5
MDA-MB-231 = test system: MDA-MB-231
MDA-MB-435 = test system: MDA-MB-435
LOX IMVI = test system: LOX IMVI
Hs-578T = test system: Hs-578T
OVCAR-8 = test system: OVCAR-8
U-251 = test system: U-251
UO-31 = test system: UO-31
COLO 205 = test system: COLO 205
BT-549 = test system: BT-549
MDA-N = test system: MDA-N
NCI-H460 = test system: NCI-H460
SNB-75 = test system: SNB-75
HCC 2998 = test system: HCC 2998
DU-145 = test system: DU-145
SN12C = test system: SN12C
SK-MEL-28 = test system: SK-MEL-28

**Q.** `CCOC(=O)c1nc2ccc(C(F)(F)F)cc2nc1NCc1ccc(OC)c(OC)c1` was tested. Which GI50 (UACC-257) did it give?
**A.** 61.4 µM (inactive)

**Q.** And the GI50 (HL-60)?
**A.** 22.8 µM (inactive)

**Q.** And the GI50 (A498)?
**A.** 58.2 µM (inactive)

**Q.** What about the GI50 (TK-10) of the same compound?
**A.** > 100 µM (inactive)

**Q.** And the GI50 (NCI-H522)?
**A.** 30.6 µM (inactive)

**Q.** What about the GI50 (HOP-92) of the same compound?
**A.** 29.7 µM (inactive)

**Q.** What about the GI50 (Malme-3M) of the same compound?
**A.** 97.7 µM (inactive)

**Q.** What about the GI50 (IGROV-1) of the same compound?
**A.** 71.1 µM (inactive)

**Q.** What about the GI50 (SK-MEL-2) of the same compound?
**A.** 24.2 µM (inactive)

**Q.** What about the GI50 (NCI/ADR-RES) of the same compound?
**A.** 37 µM (inactive)

**Q.** What about the GI50 (OVCAR-4) of the same compound?
**A.** 73.5 µM (inactive)

**Q.** What about the GI50 (NCI-H23) of the same compound?
**A.** 72.8 µM (inactive)

**Q.** What about the GI50 (SR) of the same compound?
**A.** 29.6 µM (inactive)

**Q.** And the GI50 (SF-295)?
**A.** 47.6 µM (inactive)

**Q.** What about the GI50 (HCT-15) of the same compound?
**A.** 69 µM

**Q.** And the GI50 (SF-268)?
**A.** 83.9 µM (inactive)

**Q.** What about the GI50 (OVCAR-3) of the same compound?
**A.** 45.8 µM (inactive)

**Q.** And the GI50 (MCF7)?
**A.** 37.7 µM (inactive)

**Q.** What about the GI50 (A549) of the same compound?
**A.** 50.2 µM (inactive)

**Q.** And the GI50 (RPMI-8226)?
**A.** 86.1 µM (inactive)

**Q.** What about the GI50 (ACHN) of the same compound?
**A.** 53.1 µM (inactive)

**Q.** What about the GI50 (EKVX) of the same compound?
**A.** 44.8 µM (inactive)

**Q.** What about the GI50 (SW-620) of the same compound?
**A.** 49.7 µM (inactive)

**Q.** What about the GI50 (SK-OV-3) of the same compound?
**A.** > 100 µM (inactive)

**Q.** What about the GI50 (SNB-19) of the same compound?
**A.** 94.2 µM (inactive)

**Q.** What about the GI50 (NCI-H226) of the same compound?
**A.** 63.5 µM (inactive)

**Q.** And the GI50 (M14)?
**A.** 67.8 µM (inactive)

**Q.** What about the GI50 (PC-3) of the same compound?
**A.** 35.5 µM (inactive)

**Q.** And the GI50 (CAKI-1)?
**A.** > 100 µM (inactive)

**Q.** And the GI50 (HCT-116)?
**A.** 39.2 µM (inactive)

**Q.** And the GI50 (RXF 393)?
**A.** 43.6 µM (inactive)

**Q.** What about the GI50 (HOP-62) of the same compound?
**A.** 58.3 µM (inactive)

**Q.** And the GI50 (KM12)?
**A.** 55.5 µM (inactive)

**Q.** What about the GI50 (SF-539) of the same compound?
**A.** > 100 µM (inactive)

**Q.** And the GI50 (T47D)?
**A.** 48.1 µM (inactive)

**Q.** And the GI50 (UACC-62)?
**A.** 73.6 µM (inactive)

**Q.** And the GI50 (MOLT-4)?
**A.** 34.9 µM (inactive)

**Q.** What about the GI50 (K562) of the same compound?
**A.** 49.5 µM (inactive)

**Q.** And the GI50 (CCRF-CEM)?
**A.** 65.6 µM (inactive)

**Q.** What about the GI50 (OVCAR-5) of the same compound?
**A.** > 100 µM (inactive)

**Q.** And the GI50 (HT-29)?
**A.** 32.1 µM (inactive)

**Q.** And the GI50 (786-0)?
**A.** > 100 µM (inactive)

**Q.** And the GI50 (SK-MEL-5)?
**A.** 37.8 µM (inactive)

**Q.** What about the GI50 (MDA-MB-231) of the same compound?
**A.** > 100 µM (inactive)

**Q.** What about the GI50 (MDA-MB-435) of the same compound?
**A.** 50.1 µM (inactive)

**Q.** And the GI50 (LOX IMVI)?
**A.** 36.1 µM (inactive)

**Q.** And the GI50 (Hs-578T)?
**A.** 42.8 µM (inactive)

**Q.** What about the GI50 (OVCAR-8) of the same compound?
**A.** 80.4 µM (inactive)

**Q.** What about the GI50 (U-251) of the same compound?
**A.** 41.8 µM (inactive)

**Q.** And the GI50 (UO-31)?
**A.** 60.7 µM (inactive)

**Q.** And the GI50 (COLO 205)?
**A.** 35.8 µM (inactive)

**Q.** What about the GI50 (BT-549) of the same compound?
**A.** 51.3 µM (inactive)

**Q.** And the GI50 (MDA-N)?
**A.** 51.3 µM (inactive)

**Q.** And the GI50 (NCI-H460)?
**A.** 35.6 µM (inactive)

**Q.** And the GI50 (SNB-75)?
**A.** 21.9 µM (inactive)

**Q.** Which results are given for `[O-][S+](Nc1ccccc1)c1ccc(Cl)c(Cl)c1` (stereo unspecified)?
**A.** GI50 (UACC-257): 62.2 µM (inactive); GI50 (HL-60): 36.9 µM (inactive); GI50 (TK-10): > 100 µM (inactive); GI50 (NCI-H522): 21.9 µM (inactive); GI50 (Malme-3M): 56.6 µM (inactive); GI50 (IGROV-1): 21.5 µM (inactive); GI50 (SK-MEL-2): 33.3 µM (inactive); GI50 (NCI/ADR-RES): 37.5 µM (inactive); GI50 (OVCAR-4): 47.9 µM (inactive); GI50 (NCI-H23): 54.5 µM (inactive); GI50 (SR): 26.4 µM (inactive); GI50 (SF-295): 24.2 µM (inactive); GI50 (HCT-15): 57.3 µM; GI50 (HCC 2998): 27.3 µM (inactive); GI50 (SF-268): 26.4 µM (inactive); GI50 (OVCAR-3): 63.2 µM (inactive); GI50 (MCF7): 33.7 µM (inactive); GI50 (A549): 28.6 µM (inactive); GI50 (DU-145): 69.8 µM (inactive); GI50 (RPMI-8226): 51.6 µM (inactive); GI50 (ACHN): 62.5 µM (inactive); GI50 (EKVX): 47.3 µM (inactive); GI50 (SW-620): > 100 µM (inactive); GI50 (SNB-19): 62.8 µM (inactive); GI50 (NCI-H226): 51.1 µM (inactive); GI50 (M14): 73.5 µM (inactive); GI50 (HCT-116): 33.1 µM (inactive); GI50 (HOP-62): 26.1 µM (inactive); GI50 (KM12): 14.7 µM (inactive); GI50 (SF-539): 20.6 µM (inactive); GI50 (T47D): 10.3 µM (inactive); GI50 (UACC-62): 25.8 µM (inactive); GI50 (SN12C): > 100 µM (inactive); GI50 (MOLT-4): 23.7 µM (inactive); GI50 (K562): 39.9 µM (inactive); GI50 (CCRF-CEM): > 100 µM (inactive); GI50 (HT-29): > 100 µM (inactive); GI50 (786-0): 53.8 µM (inactive); GI50 (SK-MEL-5): 23.4 µM (inactive); GI50 (MDA-MB-231): 40.9 µM (inactive); GI50 (MDA-MB-435): 24.2 µM (inactive); GI50 (LOX IMVI): 38.8 µM (inactive); GI50 (SK-MEL-28): > 100 µM (inactive); GI50 (Hs-578T): 24.5 µM (inactive); GI50 (OVCAR-8): 66.4 µM (inactive); GI50 (U-251): 15.9 µM (inactive); GI50 (UO-31): 52 µM (inactive); GI50 (COLO 205): 69.7 µM (inactive); GI50 (BT-549): 17 µM (inactive); GI50 (MDA-N): > 100 µM (inactive); GI50 (NCI-H460): 31.3 µM (inactive)
